Measured values: patent US20240000872A1, “NOVEL BACTERIOPHAGE THAT LYSES ACINETOBACTER GENUS BACTERIA HAVING RESISTANCE TO ANTIBIOTICS” (priority 2020, published 2024)

Tested on: Acinetobacter baumannii strains
Experiment: Antibiotic susceptibility test (CLSI disk diffusion test method, read per CLSI 2016); for antibiotic susceptibility S/I/R: key: ‘S’ means susceptible; ‘I’ means intermediate; ‘R’ means resistant
Format: cell-based
Set-up: antibiotic susceptibility test value / susceptibility test value (number given before S/I/R) / antibiotic susceptibility value: unit not given here

CCN1CCN(C(=O)N[C@@H](C(=O)N[C@@H]2C(=O)N3[C@@H]2SC(C)(C)[C@@H]3C(=O)O)c2ccccc2)C(=O)C1=O [Piperalillinc]
antibiotic susceptibility S/I/R (host strain YMC14/06/R2359): R
antibiotic susceptibility value (host strain YMC14/06/R2359): 128
antibiotic susceptibility S/I/R (host strain YMC14/08/R1169): R
antibiotic susceptibility value (host strain YMC14/08/R1169): 128
antibiotic susceptibility S/I/R (host strain YMC14/08/T90): R
antibiotic susceptibility value (host strain YMC14/08/T90): 128
antibiotic susceptibility S/I/R (host strain YMC15/02/R436): R
antibiotic susceptibility value (host strain YMC15/02/R436): 128
antibiotic susceptibility S/I/R (host strain YMC15/02/T28): R
antibiotic susceptibility value (host strain YMC15/02/T28): 128
antibiotic susceptibility S/I/R (host strain YMC15/03/R1604): R
antibiotic susceptibility value (host strain YMC15/03/R1604): 128
antibiotic susceptibility S/I/R (host strain YMC15/09/R1869): R
antibiotic susceptibility value (host strain YMC15/09/R1869): 128
antibiotic susceptibility S/I/R (host strain YMC16/01/P11): R
antibiotic susceptibility value (host strain YMC16/01/P11): 128
antibiotic susceptibility S/I/R (host strain YMC16/01/R123): R
antibiotic susceptibility value (host strain YMC16/01/R123): 128
antibiotic susceptibility S/I/R (host strain YMC16/01/R198): R
antibiotic susceptibility value (host strain YMC16/01/R198): 128
antibiotic susceptibility S/I/R (host strain YMC16/01/R353): R
antibiotic susceptibility value (host strain YMC16/01/R353): 128
antibiotic susceptibility S/I/R (host strain YMC16/01/R380): R
antibiotic susceptibility value (host strain YMC16/01/R380): 128
antibiotic susceptibility S/I/R (host strain YMC16/01/R397): R
antibiotic susceptibility value (host strain YMC16/01/R397): 128
antibiotic susceptibility S/I/R (host strain YMC16/01/R405): R
antibiotic susceptibility value (host strain YMC16/01/R405): 128
antibiotic susceptibility S/I/R (host strain YMC16/03/R4461): R
antibiotic susceptibility value (host strain YMC16/03/R4461): 128
antibiotic susceptibility S/I/R (host strain YMC16/05/R2210): R
antibiotic susceptibility value (host strain YMC16/05/R2210): 128
antibiotic susceptibility S/I/R (host strain YMC16/07/R2512): R
antibiotic susceptibility value (host strain YMC16/07/R2512): 128
antibiotic susceptibility S/I/R (host strain YMC16/09/R2471): R
antibiotic susceptibility value (host strain YMC16/09/R2471): 128
antibiotic susceptibility S/I/R (host strain YMC16/10/R2537): R
antibiotic susceptibility value (host strain YMC16/10/R2537): 128
antibiotic susceptibility S/I/R (host strain YMC16/12/B11422): R
antibiotic susceptibility value (host strain YMC16/12/B11422): 128
antibiotic susceptibility S/I/R (host strain YMC16/12/B11449): R
antibiotic susceptibility value (host strain YMC16/12/B11449): 128
antibiotic susceptibility S/I/R (host strain YMC16/12/B13325): R
antibiotic susceptibility value (host strain YMC16/12/B13325): 128
antibiotic susceptibility S/I/R (host strain YMC16/12/P503): R
antibiotic susceptibility value (host strain YMC16/12/P503): 128
antibiotic susceptibility S/I/R (host strain YMC16/12/R4637): R
antibiotic susceptibility value (host strain YMC16/12/R4637): 128
antibiotic susceptibility S/I/R (host strain YMC17/01/B8053): R
antibiotic susceptibility value (host strain YMC17/01/B8053): 128
antibiotic susceptibility S/I/R (host strain YMC17/01/B10087): R
antibiotic susceptibility value (host strain YMC17/01/B10087): 128
antibiotic susceptibility S/I/R (host strain YMC17/01/B12075): R
antibiotic susceptibility value (host strain YMC17/01/B12075): 128
antibiotic susceptibility S/I/R (host strain YMC17/01/B13454): R
antibiotic susceptibility value (host strain YMC17/01/B13454): 128
antibiotic susceptibility S/I/R (host strain YMC17/01/P518): R
antibiotic susceptibility value (host strain YMC17/01/P518): 128
antibiotic susceptibility S/I/R (host strain YMC17/01/R2812): R
antibiotic susceptibility value (host strain YMC17/01/R2812): 128
antibiotic susceptibility S/I/R (host strain YMC17/02/B14): R
antibiotic susceptibility value (host strain YMC17/02/B14): 128
antibiotic susceptibility S/I/R (host strain YMC17/02/B87): R
antibiotic susceptibility value (host strain YMC17/02/B87): 128
antibiotic susceptibility S/I/R (host strain YMC17/02/B721): R
antibiotic susceptibility value (host strain YMC17/02/B721): 128
antibiotic susceptibility S/I/R (host strain YMC17/02/B4039): R
antibiotic susceptibility value (host strain YMC17/02/B4039): 128
antibiotic susceptibility S/I/R (host strain YMC17/02/B4520): R
antibiotic susceptibility value (host strain YMC17/02/B4520): 128
antibiotic susceptibility S/I/R (host strain YMC17/02/B4864): S
antibiotic susceptibility value (host strain YMC17/02/B4864): 8
antibiotic susceptibility S/I/R (host strain YMC17/02/B8414): R
antibiotic susceptibility value (host strain YMC17/02/B8414): 128
antibiotic susceptibility S/I/R (host strain YMC17/02/P523): R
antibiotic susceptibility value (host strain YMC17/02/P523): 128
antibiotic susceptibility S/I/R (host strain YMC17/02/R541): R
antibiotic susceptibility value (host strain YMC17/02/R541): 128
antibiotic susceptibility S/I/R (host strain YMC17/02/R2392): R
antibiotic susceptibility value (host strain YMC17/02/R2392): 128
antibiotic susceptibility S/I/R (host strain YMC17/03/B4730): R
antibiotic susceptibility value (host strain YMC17/03/B4730): 128
antibiotic susceptibility S/I/R (host strain YMC17/03/B5000): R
antibiotic susceptibility value (host strain YMC17/03/B5000): 128
antibiotic susceptibility S/I/R (host strain YMC17/03/P971): R
antibiotic susceptibility value (host strain YMC17/03/P971): 128
antibiotic susceptibility S/I/R (host strain YMC17/03/R348): R
antibiotic susceptibility value (host strain YMC17/03/R348): 128
antibiotic susceptibility S/I/R (host strain YMC17/03/R585): R
antibiotic susceptibility value (host strain YMC17/03/R585): 128
antibiotic susceptibility S/I/R (host strain YMC17/03/R1888): R
antibiotic susceptibility value (host strain YMC17/03/R1888): 128
antibiotic susceptibility S/I/R (host strain YMC17/03/R3279): R
antibiotic susceptibility value (host strain YMC17/03/R3279): 128
antibiotic susceptibility S/I/R (host strain YMC17/03/R4077): R
antibiotic susceptibility value (host strain YMC17/03/R4077): 128
antibiotic susceptibility S/I/R (host strain YMC17/03/R4607): R
antibiotic susceptibility value (host strain YMC17/03/R4607): 128
antibiotic susceptibility S/I/R (host strain YMC17/04/R488): R
antibiotic susceptibility value (host strain YMC17/04/R488): 128
antibiotic susceptibility S/I/R (host strain YMC17/04/R640): R
antibiotic susceptibility value (host strain YMC17/04/R640): 128
antibiotic susceptibility S/I/R (host strain YMC/17/05/R1095): R
antibiotic susceptibility value (host strain YMC/17/05/R1095): 128
